Laboratory results reported in patent publication US20220142897A1, “Formulation and Use Thereof in the Treatment of Keratosis Pilaris” (priority 2020, published 2022).

What was measured:
[1] = system: sebaceous glands; test: Stimulation of sebaceous glands / sebum production by topical DHEA; type: in vivo, human
Text: The main component of the current invention is DHEA, a steroid hormone. Without being bound by theory, it is hypothesized that DHEA in the current invention serves to simulate the production of sebaceous glands. […] In contrast, the upper limits of DHEA in the current invention can be as high as 100%.
Daily applications of DHEA can increase the output of sebaceous glands by up to 60% within 3 months. This makes DHEA a particularly viable and effective treatment for increasing sebum output in those with KP. Patients with KP typically have widespread sebaceous gland atrophy in the affected areas of the skin, causing downstream symptoms of skin dryness, inflammation, and could potentially be the root cause of the keratin papules that develop. DHEA also is suspected to help modulate and regulate keratinocyte proliferation. It is suspected that by regulating keratinocytes in the follicular channel, the rate at which keratin blockages forms is reduced.

[2] = system: sebaceous glands; settings: cited from earlier work

SMILES | sebum production as observed by softness and oiliness ([1]; 2% DHEA) | sebum production as observed by softness and oiliness ([1]; DHEA reduced to approximately 0.1%) | stimulation of the sebaceous glands ([1]; concentrations of DHEA at less than 0.1%, clinical studies) | increase of the output of sebaceous glands ([2]; daily applications, within 3 months) | safety of continuous topical application ([2]; low concentrations to avoid systemic circulation) | potency to stimulate sebaceous gland to produce sebocytes ([2]; relative to DHEA)
C[C@]12CC[C@H](O)CC1=CC[C@@H]1[C@@H]2CC[C@]2(C)C(=O)CC[C@@H]12 [DHEA, dehydroepiandrosterone] | increase in sebum production | Such phenotypes are observed | ineffective | up to 60% | safe | –
C[C@]12CCC(=O)C[C@@H]1CC[C@@H]1[C@@H]2CC[C@]2(C)[C@@H](O)CC[C@@H]12 [DHT, dihydrotestosterone] | – | – | – | – | – | more potent than DHEA
